These results are taken from patent US8158829B2, “Organic sulfur compound and its use for controlling harmful arthropod” (Sumitomo Chemical Company, Limited, priority 2007, dated 2012).

For the assay, the system named is Blattella germanica. Nature of the assay: Test Example 3: filter paper with sucrose bait, Blattella germanica male imagoes. The class given is in vivo. The conditions noted are these: 500 ppm, 0.7 ml on filter paper; 2 male imagoes; after 6 days. How it is done: Preparations of the present compounds (2), (3), (5) and (6) obtained according to Formulation Example 11 were diluted so that the active ingredient concentration was 500 ppm to obtain test solutions.
A filter paper having a diameter of 5.5 cm was spread on the bottom of a polyethylene cup having a diameter of 5.5 cm and 0.7 ml of the test solution was added dropwise onto the filter paper. As a bait 30 mg of sucrose was uniformly placed on the filter paper. Into the polyethylene cup, 2 male imagoes of Blattella germanica were released and the cup was sealed with a lid. After 6 days, the number of surviving Blattella germanica was examined and the death rate of the pest was calculated.
Regarding `NC(=O)C(Cl)(CCC(F)(F)C(F)(F)Br)S(=O)(=O)CCC(F)(F)F` (stereo not shown) [present compound (6), 6-bromo-2-chloro-5,5,6,6-tetrafluoro-2-(3,3,3-trifluoropropylsulfonyl)hexanamide], the “death rate of the pest” value worked out at 100%.

As for `COC(=O)C(Cl)(CCC(F)(Cl)C(F)(F)Cl)S(=O)(=O)CCC(F)(F)F` (stereo not shown) [present compound (2), methyl 2,5,6-trichloro-5,6,6-trifluoro-2-(3,3,3-trifluoropropylsulfonyl)hexanoate], the “death rate of the pest” value was found to be 100%.

As for `NC(=O)C(Cl)(CCC(F)(Cl)C(F)(F)Cl)S(=O)(=O)CCC(F)(F)F` (stereo not shown) [present compound (3), 2,5,6-trichloro-5,6,6-trifluoro-2-(3,3,3-trifluoropropylsulfonyl)hexanamide], the “death rate of the pest” value was found to be 100%.

As to `COC(=O)C(Cl)(CCC(F)(F)C(F)(F)Br)S(=O)(=O)CCC(F)(F)F` (stereo not shown) [present compound (5), methyl 6-bromo-2-chloro-5,5,6,6-tetrafluoro-2-(3,3,3-trifluoropropylsulfonyl)hexanoate], the “death rate of the pest” value is 100%.
